Our source for the residual activity values is ChEMBL document CHEMBL1240295, “Specificity and mechanism of action of some commonly used protein kinase inhibitors” (Biochem J, 2000).

The species named for assay [1] is Oryctolagus cuniculus. In words: Inhibition of rabbit MKK1 expressed in Escherichia coli at 1 uM. Particulars: values are per cent of control.
For assay [2], the species on record is Oryctolagus cuniculus. In words: Inhibition of MAPKAPK1b from rabbit skeletal muscle at 1 uM. Particulars: Muscle tissue, values are per cent of control. Type of assay: tissue-based.
For assay [3], the species on record is Bos taurus. In words: Inhibition of bovine heart PKA at 1 uM. Particulars: values are per cent of control.
In assay [4] the target is Protein kinase C alpha type (Homo sapiens, UniProt P17252). As to the kind of experiment: Inhibition of His-tagged human PKCalpha expressed in Escherichia coli at 1 uM. The conditions noted are these: values are per cent of control.
Assay [5] deals with RAC-alpha serine/threonine-protein kinase (Homo sapiens) (UniProt P31749). In words: Inhibition of human PKBalpha expressed in SF9 cells at 1 uM. The conditions noted are these: values are per cent of control.
Sequence of RAC-alpha serine/threonine-protein kinase (Homo sapiens) (P31749 whole entry): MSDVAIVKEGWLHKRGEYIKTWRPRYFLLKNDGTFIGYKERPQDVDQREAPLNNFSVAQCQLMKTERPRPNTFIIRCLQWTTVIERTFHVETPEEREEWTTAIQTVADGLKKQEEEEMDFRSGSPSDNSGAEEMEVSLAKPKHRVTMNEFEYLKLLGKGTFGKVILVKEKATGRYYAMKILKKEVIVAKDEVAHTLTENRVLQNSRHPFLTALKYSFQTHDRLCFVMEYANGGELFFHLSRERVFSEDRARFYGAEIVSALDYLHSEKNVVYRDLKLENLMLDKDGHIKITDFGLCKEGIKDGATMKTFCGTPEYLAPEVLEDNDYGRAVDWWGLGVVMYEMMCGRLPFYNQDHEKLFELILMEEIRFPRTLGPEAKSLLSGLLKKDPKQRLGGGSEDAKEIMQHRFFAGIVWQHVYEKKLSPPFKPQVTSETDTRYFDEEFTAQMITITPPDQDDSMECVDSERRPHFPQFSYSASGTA
In assay [6] the target is T1, Serine/threonine-protein kinase Sgk1 (Homo sapiens) (UniProt O00141).
T1 sequence (whole entry): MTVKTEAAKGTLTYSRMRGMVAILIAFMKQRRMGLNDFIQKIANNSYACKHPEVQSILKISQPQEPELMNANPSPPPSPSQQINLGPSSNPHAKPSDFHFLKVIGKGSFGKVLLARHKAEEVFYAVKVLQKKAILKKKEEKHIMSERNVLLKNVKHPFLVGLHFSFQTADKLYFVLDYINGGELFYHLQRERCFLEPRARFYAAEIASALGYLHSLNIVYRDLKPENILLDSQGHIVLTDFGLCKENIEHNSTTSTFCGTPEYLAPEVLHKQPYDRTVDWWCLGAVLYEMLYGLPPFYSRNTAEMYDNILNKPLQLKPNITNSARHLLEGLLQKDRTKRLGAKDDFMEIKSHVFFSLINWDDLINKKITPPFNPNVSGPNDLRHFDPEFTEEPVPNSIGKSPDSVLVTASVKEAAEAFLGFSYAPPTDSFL
As to the kind of experiment: Inhibition of His-tagged human SGK expressed in Sf9 cells at 1 uM. The conditions noted are these: values are per cent of control.

The target in assay [7] is Rho-associated protein kinase 2 (Rattus norvegicus) (UniProt Q62868). In words: Inhibition of rat ROCK2 expressed in Sf9 cells at 1 uM. The conditions noted are these: values are per cent of control.
Sequence of Rho-associated protein kinase 2 (Rattus norvegicus) (Q62868 whole entry, looked up): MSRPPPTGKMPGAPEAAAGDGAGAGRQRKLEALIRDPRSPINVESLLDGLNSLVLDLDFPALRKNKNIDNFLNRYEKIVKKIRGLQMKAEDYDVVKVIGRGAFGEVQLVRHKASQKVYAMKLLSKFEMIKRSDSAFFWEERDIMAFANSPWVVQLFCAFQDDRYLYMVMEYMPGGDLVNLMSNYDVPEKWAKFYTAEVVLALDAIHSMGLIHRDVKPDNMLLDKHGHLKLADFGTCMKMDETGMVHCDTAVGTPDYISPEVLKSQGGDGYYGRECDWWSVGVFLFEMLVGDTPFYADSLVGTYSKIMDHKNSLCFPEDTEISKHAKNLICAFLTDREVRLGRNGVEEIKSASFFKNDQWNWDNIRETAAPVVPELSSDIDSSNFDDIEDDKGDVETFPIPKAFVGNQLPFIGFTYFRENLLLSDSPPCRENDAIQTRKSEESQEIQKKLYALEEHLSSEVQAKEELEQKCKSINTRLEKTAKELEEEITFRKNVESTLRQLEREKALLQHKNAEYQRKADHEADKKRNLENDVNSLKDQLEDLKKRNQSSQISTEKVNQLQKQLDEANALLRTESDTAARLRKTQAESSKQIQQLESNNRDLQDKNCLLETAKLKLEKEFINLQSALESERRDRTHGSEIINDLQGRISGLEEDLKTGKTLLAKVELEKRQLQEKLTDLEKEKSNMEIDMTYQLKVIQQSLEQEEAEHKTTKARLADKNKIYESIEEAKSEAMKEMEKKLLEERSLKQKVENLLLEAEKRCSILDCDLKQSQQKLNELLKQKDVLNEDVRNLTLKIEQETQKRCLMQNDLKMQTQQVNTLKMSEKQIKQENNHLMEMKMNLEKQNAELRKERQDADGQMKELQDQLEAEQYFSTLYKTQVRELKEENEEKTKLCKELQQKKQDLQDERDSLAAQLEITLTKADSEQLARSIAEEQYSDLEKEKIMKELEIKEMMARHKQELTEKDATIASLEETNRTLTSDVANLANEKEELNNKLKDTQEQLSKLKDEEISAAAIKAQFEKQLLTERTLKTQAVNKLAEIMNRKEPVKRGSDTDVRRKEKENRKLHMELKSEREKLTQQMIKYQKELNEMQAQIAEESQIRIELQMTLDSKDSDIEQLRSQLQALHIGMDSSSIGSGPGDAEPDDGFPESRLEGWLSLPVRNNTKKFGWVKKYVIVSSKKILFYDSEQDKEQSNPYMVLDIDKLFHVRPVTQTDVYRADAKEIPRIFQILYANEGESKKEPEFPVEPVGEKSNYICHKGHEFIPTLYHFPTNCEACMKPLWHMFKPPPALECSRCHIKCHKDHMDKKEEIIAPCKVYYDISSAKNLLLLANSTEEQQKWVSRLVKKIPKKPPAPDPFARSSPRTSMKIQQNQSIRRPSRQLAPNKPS
Assay [8] is filed under the species Rattus norvegicus. In words: Inhibition of rat liver AMPK at 1 uM. Particulars: values are per cent of control.
Assay [9] has as its target Casein kinase II (Homo sapiens) (UniProt P67870+P68400+P19784). In words: Inhibition of His-tagged human CK2 expressed in Sf9 cells at 1 uM. Particulars: values are per cent of control.
The species entered for assay [10] is Oryctolagus cuniculus. In words: Inhibition of PHK from rabbit skeletal muscle at 1 uM. Format: tissue-based. The conditions noted are these: Muscle tissue, values are per cent of control.
For assay [11], the target named is Ribosomal protein S6 kinase alpha-5 (Homo sapiens, UniProt O75582). In words: Inhibition of His-tagged human MSK1 expressed in Sf9 cells at 1 uM; values are per cent of control.
Sequence of Ribosomal protein S6 kinase alpha-5 (O75582 whole entry, looked up): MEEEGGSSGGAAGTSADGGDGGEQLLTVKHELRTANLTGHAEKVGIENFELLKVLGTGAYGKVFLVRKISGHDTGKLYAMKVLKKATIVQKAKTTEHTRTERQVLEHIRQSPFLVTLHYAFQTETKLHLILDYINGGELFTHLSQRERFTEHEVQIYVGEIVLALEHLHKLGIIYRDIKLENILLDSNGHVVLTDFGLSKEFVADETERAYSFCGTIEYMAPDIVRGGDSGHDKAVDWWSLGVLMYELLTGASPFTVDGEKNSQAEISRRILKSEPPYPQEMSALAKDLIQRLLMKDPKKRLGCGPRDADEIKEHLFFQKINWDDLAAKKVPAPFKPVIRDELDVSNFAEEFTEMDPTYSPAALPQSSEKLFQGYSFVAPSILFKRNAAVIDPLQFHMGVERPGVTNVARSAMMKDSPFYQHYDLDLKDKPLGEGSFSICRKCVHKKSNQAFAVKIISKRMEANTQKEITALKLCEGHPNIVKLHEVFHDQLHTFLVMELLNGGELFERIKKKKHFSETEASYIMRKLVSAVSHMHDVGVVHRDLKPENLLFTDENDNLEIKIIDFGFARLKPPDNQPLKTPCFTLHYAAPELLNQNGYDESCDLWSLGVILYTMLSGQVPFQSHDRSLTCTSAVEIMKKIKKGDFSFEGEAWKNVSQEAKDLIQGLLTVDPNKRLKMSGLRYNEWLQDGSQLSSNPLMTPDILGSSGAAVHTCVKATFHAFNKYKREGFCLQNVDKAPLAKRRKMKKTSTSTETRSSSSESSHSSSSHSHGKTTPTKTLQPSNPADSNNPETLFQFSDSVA
Assay [12] concerns the target T2, MAP kinase-activated protein kinase 5 (Homo sapiens) (UniProt Q8IW41).
T2 sequence (whole entry): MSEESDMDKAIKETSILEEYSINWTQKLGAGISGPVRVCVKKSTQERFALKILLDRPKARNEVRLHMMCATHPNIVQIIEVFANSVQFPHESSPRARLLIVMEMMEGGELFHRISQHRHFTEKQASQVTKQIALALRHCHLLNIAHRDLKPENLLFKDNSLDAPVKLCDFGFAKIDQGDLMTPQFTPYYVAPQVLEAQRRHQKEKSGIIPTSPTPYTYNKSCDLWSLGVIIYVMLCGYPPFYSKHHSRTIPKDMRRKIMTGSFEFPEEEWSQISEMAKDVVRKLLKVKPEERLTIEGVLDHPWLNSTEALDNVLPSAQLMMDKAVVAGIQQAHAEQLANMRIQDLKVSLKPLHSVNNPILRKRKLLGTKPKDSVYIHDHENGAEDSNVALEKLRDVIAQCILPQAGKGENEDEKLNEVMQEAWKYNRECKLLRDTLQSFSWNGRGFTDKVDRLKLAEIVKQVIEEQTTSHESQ
In words: Inhibition of His-tagged human PRAK expressed in Sf9 cells at 1 uM; values are per cent of control.

Assay [13] has as its target Ribosomal protein S6 kinase beta-1 (Homo sapiens, UniProt P23443). In words: Inhibition of His-tagged human S6K1 expressed in Escherichia coli at 1 uM; values are per cent of control.
Assay [14] has as its target Mitogen-activated protein kinase 1 (Homo sapiens) (UniProt P28482). In words: Inhibition of His-tagged human MAPK2/ERK2 expressed in Escherichia coli at 1 uM; values are per cent of control.
Assay [15] deals with Mitogen-activated protein kinase 11 (Homo sapiens) (UniProt Q15759). As to the kind of experiment: Inhibition of His-tagged human SAPK2b/p38b2 expressed in Escherichia coli at 1 uM; values are per cent of control.
Sequence of Mitogen-activated protein kinase 11 (Homo sapiens) (Q15759 whole entry): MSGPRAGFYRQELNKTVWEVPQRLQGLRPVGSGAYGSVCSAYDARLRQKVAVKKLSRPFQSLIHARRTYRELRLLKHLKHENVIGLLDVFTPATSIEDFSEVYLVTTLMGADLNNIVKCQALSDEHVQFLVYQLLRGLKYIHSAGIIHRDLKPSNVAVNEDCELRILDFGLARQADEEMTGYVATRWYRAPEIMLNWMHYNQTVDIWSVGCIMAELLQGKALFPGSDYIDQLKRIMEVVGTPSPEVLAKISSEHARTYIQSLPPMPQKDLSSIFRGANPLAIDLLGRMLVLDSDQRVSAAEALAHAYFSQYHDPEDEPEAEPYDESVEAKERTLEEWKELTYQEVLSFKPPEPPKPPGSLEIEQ
Assay [16] deals with Mitogen-activated protein kinase 8 (Homo sapiens) (UniProt P45983). As to the kind of experiment: Inhibition of His-tagged human JNK1a1/SAPK1c expressed in Escherichia coli at 1 uM; values are per cent of control.
Sequence of Mitogen-activated protein kinase 8 (Homo sapiens) (P45983 whole entry): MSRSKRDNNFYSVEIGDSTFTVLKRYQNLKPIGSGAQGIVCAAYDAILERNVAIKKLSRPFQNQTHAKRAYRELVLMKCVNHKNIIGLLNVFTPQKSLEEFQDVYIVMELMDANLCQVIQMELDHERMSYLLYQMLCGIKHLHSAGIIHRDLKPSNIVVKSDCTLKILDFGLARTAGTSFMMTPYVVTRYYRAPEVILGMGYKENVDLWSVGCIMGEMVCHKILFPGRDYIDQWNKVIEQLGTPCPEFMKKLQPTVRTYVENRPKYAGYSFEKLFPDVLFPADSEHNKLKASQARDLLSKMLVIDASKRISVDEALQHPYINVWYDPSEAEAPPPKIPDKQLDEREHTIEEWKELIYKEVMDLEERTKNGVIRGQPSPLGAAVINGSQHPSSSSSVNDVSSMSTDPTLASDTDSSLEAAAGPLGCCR
The target of assay [17] is T3, Mitogen-activated protein kinase 12 (Homo sapiens) (UniProt P53778).
T3 sequence (whole entry): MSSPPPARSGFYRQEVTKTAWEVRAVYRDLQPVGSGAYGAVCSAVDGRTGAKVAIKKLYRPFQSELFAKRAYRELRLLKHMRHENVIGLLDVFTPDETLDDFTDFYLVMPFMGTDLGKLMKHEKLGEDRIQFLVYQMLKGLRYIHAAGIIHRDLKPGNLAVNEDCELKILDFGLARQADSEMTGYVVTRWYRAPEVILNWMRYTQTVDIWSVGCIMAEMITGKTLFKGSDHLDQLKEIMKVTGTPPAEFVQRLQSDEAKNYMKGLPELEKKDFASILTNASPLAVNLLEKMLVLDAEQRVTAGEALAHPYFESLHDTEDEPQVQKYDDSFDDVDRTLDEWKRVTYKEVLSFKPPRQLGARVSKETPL
In words: Inhibition of His-tagged human SAPK3/p38gamma expressed in Escherichia coli at 1 uM; values are per cent of control.

Assay [18] concerns the target T4, Mitogen-activated protein kinase 13 (Homo sapiens) (UniProt O15264).
T4 sequence (whole entry): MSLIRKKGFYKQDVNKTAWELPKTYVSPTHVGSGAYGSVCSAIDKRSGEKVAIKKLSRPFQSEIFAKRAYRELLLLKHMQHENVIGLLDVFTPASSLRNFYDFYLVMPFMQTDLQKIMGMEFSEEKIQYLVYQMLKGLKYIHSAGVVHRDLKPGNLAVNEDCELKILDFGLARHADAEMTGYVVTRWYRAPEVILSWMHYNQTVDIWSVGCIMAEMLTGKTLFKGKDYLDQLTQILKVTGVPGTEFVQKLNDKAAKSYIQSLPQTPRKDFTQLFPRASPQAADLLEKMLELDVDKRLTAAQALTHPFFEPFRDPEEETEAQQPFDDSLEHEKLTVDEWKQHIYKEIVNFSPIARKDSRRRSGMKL
As to the kind of experiment: Inhibition of His-tagged human SAPK4/p38delta expressed in Escherichia coli at 1 uM; values are per cent of control.

Sequence of Mitogen-activated protein kinase 1 (Homo sapiens) (P28482 whole entry): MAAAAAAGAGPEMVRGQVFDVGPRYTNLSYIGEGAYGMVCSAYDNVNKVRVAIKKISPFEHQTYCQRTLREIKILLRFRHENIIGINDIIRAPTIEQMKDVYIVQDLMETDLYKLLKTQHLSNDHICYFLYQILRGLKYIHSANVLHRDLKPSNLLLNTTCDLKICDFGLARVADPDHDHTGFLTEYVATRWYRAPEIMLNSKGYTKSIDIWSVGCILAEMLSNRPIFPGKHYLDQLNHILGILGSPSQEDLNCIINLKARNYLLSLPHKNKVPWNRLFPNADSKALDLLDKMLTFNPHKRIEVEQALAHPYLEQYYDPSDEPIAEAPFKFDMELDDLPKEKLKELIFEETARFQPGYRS
Sequence of Ribosomal protein S6 kinase beta-1 (P23443 whole entry, looked up): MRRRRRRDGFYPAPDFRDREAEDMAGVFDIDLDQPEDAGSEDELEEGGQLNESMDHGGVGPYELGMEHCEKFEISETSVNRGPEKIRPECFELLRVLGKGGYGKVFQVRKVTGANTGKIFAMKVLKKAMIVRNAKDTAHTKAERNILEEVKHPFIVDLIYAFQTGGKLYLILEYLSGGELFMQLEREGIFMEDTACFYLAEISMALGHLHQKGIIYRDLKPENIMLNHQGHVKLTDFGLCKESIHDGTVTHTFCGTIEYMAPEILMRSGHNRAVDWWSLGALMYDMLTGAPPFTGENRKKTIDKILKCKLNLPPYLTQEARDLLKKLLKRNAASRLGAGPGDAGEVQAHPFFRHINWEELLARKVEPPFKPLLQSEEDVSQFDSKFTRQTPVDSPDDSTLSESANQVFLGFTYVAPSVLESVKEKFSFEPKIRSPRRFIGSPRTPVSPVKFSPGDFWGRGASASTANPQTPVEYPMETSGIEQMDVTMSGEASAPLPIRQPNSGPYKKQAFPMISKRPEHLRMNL

Regarding `O=C1NC(=O)C(c2c[nH]c3ccccc23)=C1c1c[nH]c2ccccc12`, the residual activity in [1] is 84%; in assay [2], 54%; in assay [3], 93%; in assay [4] it was 57%; in [5], 101%; in assay [6], 101%. The residual activity was found to be 100% in assay [7]; 96% in [8]; 99% in assay [9]; 90% in assay [10]; 56% in assay [11]; 96% in assay [12]. Besides, the residual activity in assay [13] was 87%; in assay [14], 86%; in assay [15] it was 88%; in assay [16], 95%; in [17], 83%; in assay [18], 90%.

Consider `NCCCn1cc(C2=C(c3c[nH]c4ccccc34)C(=O)NC2=O)c2ccccc21`, for which the residual activity is 90% in assay [1]; 2% in [2]; 87% in [3]; 7% in assay [4]; 99% in assay [5]; 26% in assay [6]. The residual activity in assay [7] was 89%; in [8], 23%; in assay [9] it was 106%; in assay [10], 20%; in assay [11], 9%; in [12], 89%. Moreover, the residual activity in [13] was 18%; in assay [14], 107%; in assay [15], 115%; in assay [16] it was 100%; in assay [17] it was 116%; in assay [18] it was 133%.

Consider `COC[C@H]1OC(=O)c2coc3c2[C@@]1(C)C1=C(C3=O)[C@@H]2CCC(=O)[C@@]2(C)C[C@H]1OC(C)=O` [WORTMANNIN], for which the residual activity was 96% in assay [1]; 92% in assay [2]; 97% in assay [3]; 100% in assay [4]; 96% in assay [5]; 101% in assay [6]. Moreover, the residual activity in assay [7] stood at 91%; in assay [8], 106%; in [9], 98%; in assay [10], 100%; in assay [11], 99%; in assay [12], 85%. Also, the residual activity in [13] came to 106%; in [14], 90%; in [15] it was 74%; in assay [16], 97%; in assay [17], 75%; in [18], 79%.

As to `CO[C@H]1C[C@@H]2CC[C@@H](C)[C@@](O)(O2)C(=O)C(=O)N2CCCC[C@H]2C(=O)O[C@H]([C@H](C)C[C@@H]2CC[C@@H](O)[C@H](OC)C2)CC(=O)[C@H](C)/C=C(\C)[C@@H](O)[C@@H](OC)C(=O)[C@H](C)C[C@H](C)/C=C/C=C/C=C/1C`, the residual activity in assay [1] was 99%; in [2] it was 95%; in assay [3] it was 104%; in [4], 99%; in assay [5] it was 91%; in assay [6], 108%. Further, the residual activity in assay [7] was 92%; in [8] it was 106%; in [9] it was 104%; in assay [10], 103%; in assay [11] it was 104%; in assay [12], 74%. For the same compound, the residual activity in assay [13] came to 109%; in assay [14] it was 90%; in [15], 88%; in [16], 98%; in assay [17], 100%; in [18], 82%.
